# Data: patent US20090304746A1 (priority 1993, published 2009)
# No end group written: not given here.
# Tests used:
# [1] = molecular target: HLA-B*3501 (Homo sapiens, UniProt P01889, A329T/A93T/A95T/C349S/D201E/D98Y/E176V/E187L/E204Q/E69T/I218V/K202T/L119I/Q94N/R155S/R180L/S121R/S35A/S48A/T118I/V127L/V306I/V36M/Y140S/Y91F); test: HLA class I binding assay, B*3501
# [2] = molecular target: HLA-B*5301 (Homo sapiens, UniProt P01889, A329T/A93T/A95T/C349S/D201E/D98Y/E176V/E187L/E204Q/E69T/G107R/I218V/K202T/L105A/L119I/N104I/Q94N/R106L/R155S/R180L/S101N/S121R/S35A/S48A/T118I/V127L/V306I/V36M/Y140S/Y91F); test: HLA class I binding assay, B*5301
# [3] = system: PBMC from HCV-infected patients; test: CTL recall: recognition in vitro by PBMC from HCV-infected patients, 51Cr release; assay type: cell-based, human
# [4] = molecular target: T1, DRB1*0301 (DR3) (Homo sapiens, UniProt P01903+P01911, A100K/A102G/A103R/A169T/F55Y/I96L/K41T/L162R/M171V/P40S/Q125H/Q178H/Q39Y/R42S/S66N/T106N/T262R/W38E/Y61H); test: HLA class II binding assay, DRB1*0301 (DR3); conditions: DR3 binding affinity, DR3 motif peptides
# T1 construct: endogenous in cells; host or cells: MAT
# [5] = A3-supertype binders, positive responses over total number examined
# [6] = A3-supertype binders, positive responses over total number of contacts examined
# [7] = A3-supertype binders, positive responses over total number of patients examined
# [8] = A3-supertype binders, sum over all groups, positive over total examined
# [9] = sum over the four human data sets
Compound,IC50 [1] [µM],IC50 [2] [µM],"Immunogenicity Human, Chisari [3, 5]","Immunogenicity Human, Pape [3, 5]","Immunogenicity Human, Barnaba; contacts [3, 6]","Immunogenicity Human, Barnaba; patients [3, 7]","Immunogenicity Human, overall [3, 8]","Immunogenicity Human, Barnaba; patients ([3]; responders/tested)","Immunogenicity Human, Chisari ([3]; responders/tested)","Immunogenicity Human, Pape ([3]; responders/tested)","Immunogenicity Human, Barnaba; contacts ([3]; responders/tested, contacts)","Immunogenicity Human, overall [3, 9]",IC50 [4] [µM]
CSCC[C@H](NC(=O)[C@H](CCCNC(=N)N)NC(=O)[C@H](C)NC(=O)[C@H](Cc1c[nH]c2ccccc12)NC(=O)[C@H](CC(C)C)NC(=O)[C@@H](NC(=O)[C@@H]1CCCN1C(=O)[C@H](C)N)[C@@H](C)O)C(=O)O [Peptide 29.0031],> 30,> 30,,,,,,,,,,,
CC[C@H](C)[C@H](NC(=O)[C@H](CC(C)C)NC(=O)[C@H](CCCNC(=N)N)NC(=O)[C@H](C)NC(=O)[C@@H]1CCCN1C(=O)[C@@H](N)CCCCN)C(=O)N[C@H](C(=O)N[C@@H](Cc1ccccc1)C(=O)O)C(C)C [Peptide 29.0037],> 30,> 30,,,,,,,,,,,
CC[C@H](C)[C@H](NC(=O)[C@H](Cc1ccc(O)cc1)NC(=O)[C@@H]1CCCN1C(=O)[C@@H](N)CC(C)C)C(=O)N[C@@H](CCC(=O)O)C(=O)N[C@@H](CCC(N)=O)C(=O)NCC(=O)N[C@@H](CCSC)C(=O)O [Peptide 29.0042],> 30,> 30,,,,,,,,,,,
CSCC[C@H](NC(=O)[C@@H](N)CCCNC(=N)N)C(=O)N[C@@H](Cc1ccc(O)cc1)C(=O)N[C@H](C(=O)NCC(=O)NCC(=O)N[C@H](C(=O)N[C@@H](CCC(=O)O)C(=O)N[C@@H](Cc1c[nH]cn1)C(=O)N[C@@H](CCCNC(=N)N)C(=O)O)C(C)C)C(C)C [Peptide 1073.13],,,4/12,1/6,1/4,5/16,11/38,5/16,4/12,1/6,1/4,11/38,
CC(C)C[C@H](NC(=O)[C@H](C)NC(=O)CNC(=O)[C@H](C)NC(=O)[C@@H](NC(=O)CN)C(C)C)C(=O)N[C@H](C(=O)N[C@@H](C)C(=O)N[C@@H](Cc1ccccc1)C(=O)N[C@@H](CCCCN)C(=O)O)C(C)C [Peptide 1073.10],,,6/12,2/6,0/4,3/16,11/38,3/16,6/12,2/6,0/4,11/38,
FPGCSFSIF [Peptide 1145.13],,0.0032,,,,,,,,,,,
CC(C)C[C@H](NC(=O)[C@H](CCCNC(=N)N)NC(=O)[C@@H]1CCCN1C(=O)CNC(=O)[C@H](CCCNC(=N)N)NC(=O)[C@H](CCCNC(=N)N)NC(=O)[C@@H]1CCCN1C(=O)[C@@H](N)CC(C)C)C(=O)O [Peptide 29.0040],> 30,> 30,,,,,,,,,,,
CC[C@H](C)[C@H](NC(=O)[C@H](CCSC)NC(=O)[C@H](CCCNC(=N)N)NC(=O)[C@H](C)NC(=O)[C@H](Cc1c[nH]c2ccccc12)NC(=O)[C@H](CC(C)C)NC(=O)[C@@H](NC(=O)[C@@H]1CCCN1C(=O)[C@H](C)N)[C@@H](C)O)C(=O)N[C@@H](CC(C)C)C(=O)N[C@@H](CCSC)C(=O)O [Peptide 29.0118],> 30,> 30,,,,,,,,,,,
CC[C@H](C)[C@H](N)C(=O)N1CCC[C@H]1C(=O)N[C@@H](Cc1ccccc1)C(=O)N[C@@H](Cc1ccc(O)cc1)C(=O)NCC(=O)N[C@@H](CCCCN)C(=O)N[C@@H](C)C(=O)N[C@H](C(=O)O)[C@@H](C)CC [29.0035/1260.04],> 30,> 30,,,,,,,,,,,
CC[C@H](C)[C@H](NC(=O)[C@@H](N)CC(C)C)C(=O)N[C@@H](Cc1ccccc1)C(=O)N[C@@H](CS)C(=O)N[C@@H](Cc1c[nH]cn1)C(=O)N[C@@H](CO)C(=O)N[C@@H](CCCCN)C(=O)N[C@@H](CCCCN)C(=O)N[C@@H](CCCCN)C(=O)O [Peptide 1.0123],,,4/12,2/6,1/4,6/16,13/38,6/16,4/12,2/6,1/4,13/38,
CC(C)C[C@H](NC(=O)[C@@H](N)CCC(N)=O)C(=O)N[C@@H](Cc1ccccc1)C(=O)N[C@H](C(=O)N[C@@H](Cc1ccccc1)C(=O)N[C@@H](CO)C(=O)N1CCC[C@H]1C(=O)N[C@@H](CCCNC(=N)N)C(=O)N[C@@H](CCCNC(=N)N)C(=O)O)[C@@H](C)O [Peptide 1.0955],,,6/12,1/6,0/4,1/16,8/38,1/16,6/12,1/6,0/4,8/38,
C[C@@H](O)[C@H](NC(=O)[C@@H](N)CCCCN)C(=O)N[C@@H](CO)C(=O)N[C@@H](CCC(=O)O)C(=O)N[C@@H](CCCNC(=N)N)C(=O)N[C@@H](CO)C(=O)N[C@@H](CCC(N)=O)C(=O)N1CCC[C@H]1C(=O)N[C@@H](CCCNC(=N)N)C(=O)O [Peptide 1.0952],,,3/12,0/6,1/4,2/16,6/38,2/16,3/12,0/6,1/4,6/38,
CSCC[C@H](NC(=O)[C@H](CC(C)C)NC(=O)[C@H](C)NC(=O)[C@H](CC(=O)O)NC(=O)[C@@H](NC(=O)[C@H](C)NC(=O)[C@@H](NC(=O)[C@@H](NC(=O)[C@@H](NC(=O)[C@@H](N)C(C)C)C(C)C)C(C)C)C(C)C)[C@@H](C)O)C(=O)N[C@H](C(=O)NCC(=O)N[C@@H](Cc1ccc(O)cc1)C(=O)N[C@H](C(=O)NCC(=O)O)[C@@H](C)O)[C@@H](C)O [CH35.0106],,,,,,,,,,,,,≤ 1
CC(C)C[C@H](NC(=O)[C@H](C)NC(=O)CNC(=O)[C@H](C)NC(=O)[C@@H](N)C(C)C)C(=O)N[C@H](C(=O)N[C@@H](C)C(=O)N[C@@H](Cc1ccccc1)C(=O)N[C@@H](CCCCN)C(=O)O)C(C)C [Peptide 24.0090],,,6/12,0/4,1/4,4/16,11/38,4/16,6/12,0/4,1/4,11/38,
CC(C)C[C@H](NC(=O)[C@@H](N)CCCNC(=N)N)C(=O)NCC(=O)N[C@H](C(=O)N[C@@H](CCCNC(=N)N)C(=O)N[C@@H](C)C(=O)N[C@H](C(=O)N[C@@H](CCCNC(=N)N)C(=O)N[C@@H](CCCCN)C(=O)O)[C@@H](C)O)C(C)C [Peptide 1073.11],,,7/12,1/6,1/4,4/16,13/38,4/16,7/12,1/6,1/4,13/38,
